Test results reported in US8080370B2, “Screening method for prophylactic and/or therapeutic agent for disease accompanied by hepatitis C” (Osaka University, priority 2006, dated 2011).

Test system: SREBP-1c promoter
Assay: SREBP-1c promoter dual luciferase reporter assay in HEK293T cells with RXRα/LXRα ligands
Type: cell-based, human
Conditions: ligand(s) in culture solution for 24 hours, firefly relative to Renilla luciferase
Description: A genome DNA fragment coding the SREBP-1c promoter region (located in residues −410 to +24 base region) from mouse genome was amplified, and the resulting fragment was inserted into KpnI and HindIII sites in pGL3-Basic (manufactured by Promega Corporation), to give pGL3-SREBP-1cPro (FIG. 4a).
Human embryonic kidney cells (HEK293T: cell expressing endogenous […] ) were transformed with the control plasmid coding pGL3-srebp-1cPro and Renilla luciferase (manufactured by Promega Corporation) and together with any one plasmid of (i) vacant plasmid, (ii) plasmid coding the HCV core protein, (iii) plasmid coding RXRα and LXRα, and (iv) plasmid coding RXRα, LXRα and the HCV core protein. The transformant obtained was cultivated in a culture solution containing a RXRα's ligand 9-cis-retinoic acid (9cisRA; product of Sigma Corporation), a LXRα's ligand 22(R)-hydroxycholesterol (22(R)HC), or both of them as additives for 24 hours, and then, the cells were collected; the luciferase activity of the cells was determined, similarly to (1) above, by using the dual luciferase reporter assay system (manufactured by Promega Corporation).

Molecule	SREBP-1c promoter activity by the HCV core protein (luciferase activity)
9-cis-retinoic acid	increase in SREBP-1c promoter activity
CC(C)CC[C@@H](O)[C@@H](C)[C@H]1CC[C@H]2[C@@H]3CC=C4C[C@@H](O)CC[C@]4(C)[C@H]3CC[C@]12C [22(R)-hydroxycholesterol]	increase in SREBP-1c promoter activity
